Assay results published in ChEMBL document CHEMBL4311969, “Polygala tenuifolia-Acori tatarinowii herbal pair as an inspiration for substituted cinnamic α-asaronol esters: Design, synthesis, anticonvulsant activity, and inhibition of lactate dehydrogenase study” (Eur J Med Chem, 2019).
“And” between values parts separate entries of the source, which are not always exact repeats. Equal entries are not always repeated. The source made the active and inactive calls. No cut-off for these calls is given here.

Experiments:
Homo sapiens [1] = species on record: Homo sapiens; assay: Inhibition of human LDH5 assessed as remaining activity at 0.5 mM using sodium pyruvate as substrate by UV-VIS spectrophotometry method relative to control
Homo sapiens [2] = species on record: Homo sapiens; assay: Inhibition of human LDH1 assessed as remaining activity at 0.5 mM using sodium pyruvate as substrate by UV-VIS spectrophotometry method relative to control
Homo sapiens [3] = species on record: Homo sapiens; assay: Inhibition of human LDH1 at 0.5 mM using sodium pyruvate as substrate by UV-VIS spectrophotometry method relative to control
Mus musculus [4] = assay: Anticonvulsant activity in Kunming mouse assessed as MES-induced hind limb extension at 100 mg/kg, ip administered 0. 5 hrs before MES stimulation relative to control; assay type: functional
Mus musculus [5] = assay: Anticonvulsant activity in ip dosed Kunming mouse assessed as reduction in ScPTZ-induced seizure administered 0.5 hrs before ScPTZ stimulation; assay type: functional
[6] = (§1) Protective index, ratio of TD50 for neurotoxicity against ip dosed Kunming mouse assessed as time remained in rod measured at 0.5 hrs by rotarod test to ED50 for anticonvulsant activity in ip dosed Kunming mouse assessed as reduction in Sc3-MP-induced seizure administered 0.5 hrs before Sc3-MP stimulation; assay type: toxicity, organism-based; settings: in vivo, read-out: PI
[7] = Neurotoxicity against Kunming mouse assessed as time remained in rod at 100 mg/kg, ip administered 0.5 to 2 hrs by rotarod test; assay type: toxicity, organism-based; settings: in vivo
Mus musculus [8] = assay: Anticonvulsant activity in Kunming mouse assessed as reduction in ScPTZ-induced clonic seizure at 300 mg/kg, ip administered 0.5 hrs before ScPTZ stimulation relative to control; assay type: functional; parameters: scale not given: the % may be the effect or the level left
[9] = Noncompetitive inhibition of human LDH5 at 0.5 mM using sodium pyruvate as substrate by UV-VIS spectrophotometry method based Lineweaver-Burk plot analysis
Mus musculus [10] = assay: Anticonvulsant activity in Kunming mouse assessed as reduction in ScPTZ-induced tonic seizure rate at 300 mg/kg, ip administered 0.5 hrs before ScPTZ stimulation relative to control; assay type: functional; parameters: scale not given: the % may be the effect or the level left
Mus musculus [11] = assay: Anticonvulsant activity in Kunming mouse assessed as reduction in ScPTZ-induced tonic seizure rate at 100 mg/kg, ip administered 0.5 hrs before ScPTZ stimulation relative to control; assay type: functional; parameters: scale not given: the % may be the effect or the level left
[12] = Noncompetitive inhibition of human LDH1 at 0.5 mM using sodium pyruvate as substrate by UV-VIS spectrophotometry method based Lineweaver-Burk plot analysis
Mus musculus [13] = assay: Anticonvulsant activity in Kunming mouse assessed as reduction in Sc3-MP-induced clonic seizure rate at 300 mg/kg, ip administered 0.5 hrs before Sc3-MP stimulation relative to control; assay type: functional; parameters: scale not given: the % may be the effect or the level left
Mus musculus [14] = assay: Anticonvulsant activity in Kunming mouse assessed as MES-induced hind limb extension at 100 mg/kg, ip administered 3 hrs before MES stimulation; assay type: functional, organism-based
Homo sapiens [15] = species on record: Homo sapiens; assay: Inhibition of human LDH5 at 0.5 mM using sodium pyruvate as substrate measured for 60 sec for every 5 mins by LC/MS-MS analysis
Mus musculus [16] = assay: Anticonvulsant activity in Kunming mouse assessed as MES-induced hind limb extension at 100 mg/kg, ip administered 0. 5 to 4 hrs before MES stimulation relative to control; assay type: functional
Mus musculus [17] = assay: Anticonvulsant activity in Kunming mouse assessed as reduction in ScPTZ-induced seizure at 300 mg/kg, ip administered 0.25 to 2 hrs before ScPTZ stimulation relative to control; assay type: functional; parameters: scale not given: the % may be the effect or the level left
Mus musculus [18] = assay: Anticonvulsant activity in Kunming mouse assessed as reduction in Sc3-MP-induced tonic seizure rate at 300 mg/kg, ip administered 0.5 hrs before Sc3-MP stimulation relative to control; assay type: functional; parameters: scale not given: the % may be the effect or the level left
[19] = as §1, with “ScPTZ-induced” for “Sc3-MP-induced”, “ScPTZ” for “Sc3-MP”; assay type: toxicity, organism-based; settings: in vivo, read-out: PI
Mus musculus [20] = assay: Anticonvulsant activity in Kunming mouse assessed as MES-induced hind limb extension at 50 mg/kg, ip administered 0.5 to 4 hrs before MES stimulation relative to control; assay type: functional
[21] = as §1, with “formalin-induced paw licking” for “Sc3-MP-induced seizure”, “formalin” for “Sc3-MP”; assay type: toxicity, organism-based; settings: in vivo, read-out: PI
Mus musculus [22] = assay: Anticonvulsant activity in Kunming mouse assessed as reduction in ScPTZ-induced seizure at 100 mg/kg, ip administered 0.25 and 1 hrs before ScPTZ stimulation relative to control; assay type: functional; parameters: scale not given: the % may be the effect or the level left
[23] = Neurotoxicity against ip dosed Kunming mouse assessed as time remained in rod measured at 0.5 hrs by rotarod test; assay type: toxicity, organism-based; settings: in vivo
Mus musculus [24] = assay: Anticonvulsant activity in Kunming mouse assessed as reduction in ScPTZ-induced seizure at 100 mg/kg, ip administered 0.25 to 2 hrs before ScPTZ stimulation relative to control; assay type: functional
[25] = Protective index, ratio of TD50 for neurotoxicity against ip dosed Kunming mouse assessed as time remained in rod measured at 0.5 hrs by rotarod test to ED50 for anticonvulsant activity in ip dosed Kunming mouse assessed as MES-induced hind limb extension administered 0.5 hrs; assay type: toxicity, organism-based; settings: in vivo, read-out: PI
Homo sapiens [26] = species on record: Homo sapiens; assay: Inhibition of human LDH1 at 0.5 mM using sodium pyruvate as substrate measured for 60 sec for every 5 mins by LC/MS-MS analysis
Homo sapiens [27] = species on record: Homo sapiens; assay: Inhibition of human LDH5 at 0.5 mM using sodium pyruvate as substrate by UV-VIS spectrophotometry method relative to control
Mus musculus [28] = assay: Anticonvulsant activity in Kunming mouse assessed as MES-induced hind limb extension at 50 mg/kg, ip administered 0.5 and 2 hrs before MES stimulation relative to control; assay type: functional
Mus musculus [29] = assay: Anticonvulsant activity in Kunming mouse assessed as MES-induced hind limb extension at 100 mg/kg, ip administered 0. 5 to 2 hrs before MES stimulation; assay type: functional, organism-based
Mus musculus [30] = assay: Anticonvulsant activity in Kunming mouse assessed as reduction in ScPTZ-induced clonic seizure at 100 mg/kg, ip administered 0.5 hrs before ScPTZ stimulation relative to control; assay type: functional; parameters: scale not given: the % may be the effect or the level left
Mus musculus [31] = assay: Anticonvulsant activity in Kunming mouse assessed as reduction in Sc3-MP-induced seizure ip dosed measured at 0.5 hrs before Sc3-MP stimulation; assay type: functional
Mus musculus [32] = assay: Anticonvulsant activity in Kunming mouse assessed as reduction in Sc3-MP-induced seizure at 300 mg/kg, ip administered 0.25 and 1 hrs before Sc3-MP stimulation relative to control; assay type: functional, organism-based
Mus musculus [33] = assay: […] activity in ip dosed Kunming mouse assessed as reduction in formalin-induced paw licking administered 0.5 hrs before formalin stimulation; assay type: functional
Mus musculus [34] = assay: Anticonvulsant activity in Kunming mouse assessed as reduction in Sc3-MP-induced seizure at 300 mg/kg, ip administered 0.5 hrs before Sc3-MP stimulation relative to control; assay type: functional; parameters: scale not given: the % may be the effect or the level left
Mus musculus [35] = assay: Anticonvulsant activity in ip dosed Kunming mouse assessed as MES-induced hind limb extension administered 0.5 hrs before MES stimulation; assay type: functional
Mus musculus [36] = assay: Anticonvulsant activity in Kunming mouse assessed as reduction in Sc3-MP-induced mortality rate at 300 mg/kg, ip administered 0.5 hrs before Sc3-MP stimulation relative to control; assay type: functional; parameters: scale not given: the % may be the effect or the level left
Mus musculus [37] = assay: Anticonvulsant activity in Kunming mouse assessed as reduction in ScPTZ-induced seizure at 100 mg/kg, ip administered 0.5 hrs before ScPTZ stimulation relative to control; assay type: functional; parameters: scale not given: the % may be the effect or the level left
Mus musculus [38] = assay: Anticonvulsant activity in Kunming mouse assessed as reduction in ScPTZ-induced seizure at 100 mg/kg, ip administered 1 hr relative to control; assay type: functional; parameters: scale not given: the % may be the effect or the level left

| SMILES | inhibition (Homo sapiens [3]) | ED50 (Mus musculus [5]) | selectivity ratio at 0.5 h [6] | Activity [7] | Activity (Mus musculus [8]) [%] | Activity (Mus musculus [10]) [%] | Activity (Mus musculus [11]) [%] | Activity (Mus musculus [13]) [%] | Activity (Mus musculus [16]) | Activity (Mus musculus [17]) [%] | Activity (Mus musculus [18]) [%] | selectivity ratio at 0.5 h [19] | Activity (Mus musculus [20]) [%] | selectivity ratio at 0.5 h [21] | TD50 at 0.5 h [23] | Activity (Mus musculus [24]) | selectivity ratio at 0.5 h [25] | inhibition (Homo sapiens [27]) | Activity (Mus musculus [28]) [%] | Activity (Mus musculus [29]) | further results |
| --- | --- | --- | --- | --- | --- | --- | --- | --- | --- | --- | --- | --- | --- | --- | --- | --- | --- | --- | --- | --- | --- |
| CCCC(CCC)C(=O)O |  |  |  |  |  |  |  |  |  |  |  |  |  |  |  |  |  |  |  |  | Activity (Homo sapiens [1]): 100%; Activity (Homo sapiens [2]): 100% |
| COc1cc(OC)c(OC)cc1/C=C/COC(=O)/C=C/c1cc(OC)c(OC)c(OC)c1 | 10% | 204 mg/kg and 458 µmol/kg | 3.3 | Non-Toxic | 100 | 25 | 100 | 100 | 25 - 100% | 50 | 75 | 4.9 | 50 | 11.6 | 2220 µmol/kg and 988 mg/kg | inactive | 29.8 | 13% | 75 | Active | Activity (Mus musculus [4]): 100%; Ki [9]: 3.35 µM; Ki [12]: 14.1 µM; Activity (Mus musculus [14]): Active; inhibition (Homo sapiens [15]): 13%; Activity (Mus musculus [22]): 75%; inhibition (Homo sapiens [26]): 10%; Activity (Mus musculus [30]): 100%; ED50 (Mus musculus [31]): > 200 mg/kg and > 450 µmol/kg; Activity (Mus musculus [32]): Active; ED50 (Mus musculus [33]): 85.5 mg/kg and 192 µmol/kg; Activity (Mus musculus [34]): 50%; ED50 (Mus musculus [35]): 74.7 µmol/kg and 33.2 mg/kg |
| COc1cc(OC)c(OC)cc1/C=C/COC(=O)/C=C/c1ccc(OC)c(OC)c1 | Active | 173 mg/kg and 418 µmol/kg | 3.3 | Non-Toxic | 100 | 0 | 100 | 100 | 25 - 100% | 50 | 75 | > 5.8 | 50 | > 10.7 | > 1000 mg/kg and > 2410 µmol/kg | inactive | > 17.2 | Active | 50 | Active | Activity (Mus musculus [36]): 25%; Activity (Mus musculus [37]): 100%; Activity (Mus musculus [30]): 100%; ED50 (Mus musculus [31]): > 300 mg/kg and > 724 µmol/kg; Activity (Mus musculus [38]): 75%; ED50 (Mus musculus [33]): 93.3 mg/kg and 225 µmol/kg; ED50 (Mus musculus [35]): 58.1 mg/kg and 140 µmol/kg |
| COc1cc(OC)c(OC)cc1/C=C/COC(=O)/C=C/c1c(OC)ccc(OC)c1OC | Active | 212 mg/kg and 476 µmol/kg | 3.3 | Non-Toxic | 100 | 50 | 100 | 100 | 25 - 100% | 50 | 75 | 4.72 | 50 | 12.5 | > 1000 mg/kg and > 2250 µmol/kg | inactive | > 18.7 | Active | 50 | Active | Activity (Mus musculus [4]): 100%; Ki [9]: 3.52 µM; Ki [12]: 12 µM; Activity (Mus musculus [36]): 25%; Activity (Mus musculus [30]): 100%; ED50 (Mus musculus [31]): > 300 mg/kg and > 675 µmol/kg; ED50 (Mus musculus [33]): 180 to 225 µmol/kg; ED50 (Mus musculus [35]): 120 µmol/kg and 53.5 mg/kg |
